Source: the SangsterLogP compilation

test: not given

| SMILES | logP |
| --- | --- |
| CN(C)C(=O)Oc1ccc(Cl)cc1 | 2.23 |
| CNC(=O)Oc1cccc(C)c1 | 1.73 |
| CCc1cccc(OC(=O)NC)c1 | 2.23 |
| CCc1ccc(OC(=O)N(C)C)cc1 | 2.58 |
| CCC(C)c1ccc(OC(=O)N(C)C)cc1 (stereo not drawn) | 3.6 |
| CNC(=O)Oc1ccc(C)cc1 | 1.73 |
| CC(C)c1ccc(OC(=O)N(C)C)cc1 | 3.07 |
| CCOc1ccc(OC(=O)NC)cc1 | 1.75 |
| CNC(=O)Oc1cccc(N(C)C)c1 | 1.64 |
| CNC(=O)Oc1cccc(I)c1 | 2.33 |
| CCOc1cccc(OC(=O)NC)c1 | 1.82 |
| CNC(=O)Oc1cccc(C(C)=O)c1 | 0.97 |
| CCC(=O)c1cccc(OC(=O)NC)c1 | 1.51 |
| CNC(=O)Oc1cccc([N+](=O)[O-])c1 | 1.37 |
| CCc1ccc(OC(=O)NC)cc1 | 2.27 |
| CNC(=O)Oc1cccc(C#N)c1 | 1.01 |
| CC(=O)c1ccc(OC(=O)N(C)C)cc1 | 1.23 |
| Cc1ccc(OC(=O)N(C)C)cc1 | 2.1 |
| CN(C)C(=O)Oc1ccc(F)cc1 | 1.65 |
| CN(C)C(=O)Oc1ccc([N+](=O)[O-])cc1 | 1.54 |
| CNC(=O)Oc1cccc(OC)c1 | 1.34 |
| CNC(=O)Oc1ccc(OC)cc1 | 1.23 |
| CN(C)C(=O)Oc1cccc(Cl)c1 | 2.26 |
| CNC(=O)Oc1ccc(F)cc1 | 1.35 |
| CNC(=O)Oc1ccc(I)cc1 | 2.34 |

test: method code SF-HPLC, from DOI: 10.1248/cpb.44.1338

| SMILES | logP |
| --- | --- |
| CN(C)C(=O)Oc1ccc(C#N)cc1 | 1.21 |
| CCCc1ccc(OC(=O)N(C)C)cc1 | 3.15 |
| CN(C)C(=O)Oc1cccc(F)c1 | 1.75 |
| CCc1cccc(OC(=O)N(C)C)c1 | 2.47 |
| CN(C)C(=O)Oc1cccc([N+](=O)[O-])c1 | 1.56 |
| CN(C)C(=O)Oc1ccc(Br)cc1 | 2.46 |
| CN(C)C(=O)Oc1cccc(C#N)c1 | 1.23 |
| CN(C)C(=O)Oc1cccc(N(C)C)c1 | 1.93 |
